# BindingDB's records for doi:10.1186/s12858-015-0048-3 (Texas Wesleyan University, 2015)
# Several values for one entry are separate records, joined by “and”; a condition that tells them apart may be missing. Equal entries are not always repeated.
# Molecular target: T1, Dual specificity protein phosphatase 5 [180-384] (Homo sapiens, UniProt Q16690)
# T1 construct: 180-384
# T1 sequence (Q16690 whole entry): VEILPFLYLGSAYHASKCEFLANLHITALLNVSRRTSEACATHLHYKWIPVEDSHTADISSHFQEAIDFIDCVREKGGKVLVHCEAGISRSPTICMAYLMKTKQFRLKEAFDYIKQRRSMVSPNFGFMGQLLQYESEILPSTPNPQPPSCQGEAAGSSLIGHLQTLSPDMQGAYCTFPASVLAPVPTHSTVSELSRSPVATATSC
# Experiment: p-NPP Assay
# Details: 25 °C
# Method: For the 96-well plate validation assay, sodium orthovanadate (Sigma Aldrich) was utilized as a positive control for inhibition [Swarup et al., Biochem. Biophys. Res. Commun., 107:1104-9] at a final concentration of 10 μM, to completely block DUSP5(WT) enzymatic activity. All plate assays were performed in standard 96-well clearbottom plates (Thermo Scientific Nunc) with a total assay volume of 200 μL, using a SpectraMax M5 Microplate Reader (Molecular Devices). The plate validation assay was performed with replicate columns of positive control wells, negative control wells and blank wells. Blank columns contained only buffer and pNPP. Negative control (uninhibited) contained buffer, pNPP, and DUSP5PD(WT); and, positive control contained the same components,but also contained 10 μM sodium orthovanadate. The plate was then shaken and allowed to equilibrate in the spectrophotometer at 25 °C for 30 min. After incubation, 4 μL of a 50 μM enzyme stock was dispensed into appropriate wells utilizing a single-channel pipette. This produced a final enzyme concentration of1 μM. Before a read was taken, the plate was shaken for five seconds. The initial rate for the DUSP5PD(WT) reaction was linear for approximately 90 min;and, the plate was kept in the spectrophotometer at 25 °C for an additional 80 min after the kinetic read. The endpoint reading was subsequently taken at 90 min after initiation of reaction.
row,IC50,Compound
1,5.1 mM and 26 mM,O=S(=O)(O)c1ccc2[nH]c3c(S(=O)(=O)O)cc(S(=O)(=O)O)cc3c2c1 [RR505]
2,0.044 mM,Cc1ccc(C(=O)Nc2ccc(S(=O)(=O)O)c3cc(S(=O)(=O)O)cc(S(=O)(=O)O)c23)cc1NC(=O)c1cccc(NC(=O)Nc2cccc(C(=O)Nc3cc(C(=O)Nc4ccc(S(=O)(=O)O)c5cc(S(=O)(=O)O)cc(S(=O)(=O)O)c45)ccc3C)c2)c1 [Suramin hexasodium]
3,6.4 mM,"O=S(=O)(O)c1ccc2c(S(=O)(=O)O)cc(S(=O)(=O)O)cc2c1 [naphthalene-1,3,6-trisulfonate(3-)]"
